In US20090143388A1, “TREATMENT OF BRAIN DISORDERS” (priority 2007, published 2009):
“Also recorded” adds a separate entry of the source. One block for each molecule: values may come before it.

How the values were obtained:
[1] = system: MPP^+-induced hydroxyl radical (.OH) in the mitochondria; assay: MPP+-induced hydroxyl radical (2,3-DHBA) production in sub-mitochondrial particles; format: biochemical; details: for increase in the production of 2,3-DHBA (OH production): sub-mitochondrial particles incubated with MPP+ (100 μM); for MPP+-induced 2,3-DHBA (OH adduct of salicylate) production in the mitochondria: irsogladine 0.01-1 mM, MPP+ 100 μM, sub-mitochondrial particles, 30 min
Method: FIG. 1. Irsogladine scavenges MPP^+-induced OH from the mitochondria. Sub-mitochondrial particles were incubated with the neurotoxic metabolite of MPTP, 1-methyl-4-phenyl pyridinium ion (MPP^+) and salicylic acid in the presence and absence of irsogladine. The resulting OH adducts of salicylate, 2,3-dihydroxy benzoic acid (2,3-DHBA) was assayed using a HPLC equipped with electrochemical detector.
Irsogladine scavenges MPP^+-induced hydroxyl radical (.OH) in the mitochondria. The oxidative metabolite of MPTP, 1-methyl-4-phenylpyridinium ion (MPP^+) is selectively taken into the dopaminergic neurons through dopamine transporters, and sequestered in the mitochondria.
Preparation of sub-mitochondrial particles and estimation of hydroxyl radical. Mitochondrial P2 fraction was obtained by making a 10% homogenate of the cerebral cortex, with a glass-Teflon homogenizer in 0.32 M sucrose in cold 10 mM potassium phosphate buffer, pH 7.2. The homogenate was centrifuged at 1,000×g for 10 min at 4° C. using a Sorvall centrifuge. The supernatant was centrifuged at 10,000×g for 30 min. The pellet was resuspended in the same volume of ice-cold 50 mM Tris in 10 mM potassium phosphate buffer (pH 7.2) and centrifuged at 10,000×g for 30 min. This step was repeated once. The pellet thus obtained was suspended in the same volume of ice-cold 10 mM potassium phosphate buffer, pH 7.2 and kept overnight at −20° C. The mitochondrial suspension was thawed, and the protein content was estimated.
The .OH adduct of salicylate, 2,3-dihydroxybenzoic acid (DHBA), was assayed employing HPLC-electrochemistry as described earlier. The ex-vivo OH production was tested in sub-mitochondrial particles. Mitochondrial fraction was incubated with MPP^+ (100 μM) and phosphate buffer (0.1 M) for 5 min. Sodium salicylate (0.75 mM) and different concentrations of irsogladine (0.01-1 mM) were added 5 min after the addition of MPP^+ and incubated for 30 min. The reaction was stopped by adding equal amount of ice-cold perchloric acid (0.1 M) containing 0.01% EDTA, kept on ice for 30 min and then centrifuged at 10,000×g for 5 min. The supernatant was injected into the HPLC system for the assay of 2,3-DHBA. Standard solution containing 2,3-DHBA was injected prior to and after the analyses of the samples, and the products formed are expressed as pmol/mg protein/min.

Balb/c mice [2] = assay: Striatal DA, DOPAC and HVA by HPLC-electrochemistry in MPTP-treated mice; format: in vivo
Method: FIG. 2. Irsogladine reverses MPTP-induced reductions in striatal DA metabolism. Striatal DA (A) and its metabolites, DOPAC (B) and HVA (C) were assayed employing a sensitive HPLC-electrochemical procedure on the 5th day following the administration of MPTP (30 mg/kg; administered twice, 16 h apart, i.p.). Irsogladine (25, 50 and 100 mg/kg, p.o.) was administered for two days at 12 h intervals following the second MPTP injection. Results given are mean±S.E.M., n=6-8 for control groups and 10-12 for MPTP-treated groups (*p<0.05 vs. control; Student's t-test).
(§1) Animals. Adult male Balb/c mice, weighing 20-25 g were used in the present study. They were housed under standard conditions of temperature (22±1° C.), humidity (60±5%) and illumination (12-h light/dark cycle). The experimental protocol met the National Guidelines on the ‘Proper Care and Use of Animals in Laboratory Research’ (Indian National Science Academy, New Delhi, 2000) and was approved by the Animal Ethics Committee of the Institute. The procedures adhered to the NIH Guidelines for the Care and Use of Laboratory Animals.
(§2) Experimental design. The animals were divided into eight groups. The first four groups of animals received either vehicle (0.5% CMC) or different doses of irsogladine (25, 50, and 100 mg/kg). The fifth group of animals was administered with MPTP. The remaining three groups received the two doses of MPTP, and different doses of irsogladine (25, 50, and 100 mg/kg). Each of the control groups consisted of 6-8 animals; while MPTP treated groups consisted of 10-12 animals. The total period of study was 5 days. Each experiment was repeated at least twice on separate days.
(§3) MPTP was dissolved in normal saline and administered intraperitonially (i.p.), twice, 16 h apart, at the dose of 30 mg/kg to mice. The animals received the first injections at 1700 h and the second at 0900 h the next day. Different doses of irsogladine (25, 50, and 100 mg/kg) were suspended in 0.5% sodium CMC and administered to control and MPTP-treated mice. Irsogladine administration started 30 min after the second MPTP injection and continued at an interval of 12 h for the next two days. The volume of injection was 10 μl/g body weight.
(§4) Analysis of biogenic amines by HPLC-electrochemistry. DA, DOPAC, HVA, 5-HT, and 5-HIAA were assayed employing HPLC equipped with an electrochemical detector. Animals were sacrificed on the 5th day by cervical dislocation. Striata were quickly dissected out from the left and right hemispheres of the brain, weighed, sonicated in chilled HClO4 (0.1 M) containing 0.05% EDTA and centrifuged at 12,500×g for 5 min. The supernatant was injected into an HPLC-ECD system (Merck-Hitachi, Germany). The biogenic amines were separated on an ion-pair Ultrasphere RP analytical column (Beckmann, Calif.). The mobile phase contained 8.65 mM heptane sulfonic acid, 0.27 mM EDTA, 13% acetonitrile (HPLC grade), 0.45% triethylamine, and 0.25% phosphoric acid (v/v). The flow rate was 0.7 ml/min and the glassy carbon working electrode was kept at 0.74 V.

Balb/c mice [3] = assay: MPTP-induced akinesia; format: in vivo
Method: (§5) FIG. 3. Effect of irsogladine on MPTP-induced akinesia (A) and catalepsy (B). Assessment of catalepsy was undertaken 2 h after the treatment of MPTP in Balb/c mice. […] Results given are mean±S.E.M., n=6-8 for control group and 10-12 for MPTP-treated groups (*p<0.01 vs. control; Mann-Whitney Rank Sum test).
as §2, §3
Akinesia. Akinesia was measured by noting the latency in seconds (s) of the animals to move all four limbs and the test was terminated if the latency exceeded 180 s. Each animal was initially acclimatized for 5 min on a wooden elevated platform (40 cm×40 cm×30 cm) used for measuring akinesia in mice. Using a stopwatch, the time taken (s) by the animal to move all the four limbs was recorded. This exercise was repeated five times for each animal.

Balb/c mice [4] = assay: Striatal 5-HT and 5-HIAA levels by HPLC-electrochemistry; format: in vivo; details: for level of 5-HIAA, in words / level of serotonin (5-HT), in words: animals treated with MPTP and/or irsogladine; for 5-HIAA (pmol/mg tissue; Mean ± SEM) / 5-HT (pmol/mg tissue; Mean ± SEM): striatum, 5th day
Method: Serotonin (5-HT) and its metabolite were assayed employing a sensitive HPLC-electrochemical procedure in the striata of Balb/c mice on 5th day following MPTP treatment (30 mg/kg; administered twice, 16 h apart, i.p.). Irsogladine (25, 50 and 100 mg/kg, p.o.) was administered for two days at 12 h intervals following second MPTP injection. Results given are mean±S.E.M., n=6-8 for control groups and 10-12 for MPTP-treated groups
as §1, §2, §3, §4

Balb/c mice [5] = assay: Swim-ability (swim score) after MPTP; format: in vivo; details: 4th day
Method: FIG. 4. Irsogladine attenuates MPTP-induced swim disability in mice. Effect of different doses of Irsogladine on the swimming ability of Balb/c mice was tested in warm water (27±2° C.) on the fourth day following the treatment of MPTP (30 mg/kg, i.p., twice, 16 h apart). Swim-scores were recorded on a performance intensity scale of 0-3 for all the animals for 10 min. Results given are mean±S.E.M., n=6-8 for control groups and 10-12 for MPTP-treated groups (p≦0.05; vs. control; Wilcoxon Signed Rank test for group comparison).
as §2
MPTP was dissolved in normal saline and administered intraperitonially (i.p.), twice, 16 h apart, at the dose of 30 mg/kg to mice. The animals received the first injections at 1700 h and the second at 0900 h the next day. […]

Balb/c mice [6] = assay: MPTP-induced catalepsy; format: in vivo; details: for catalepsy (rigidity), drug alone: irsogladine alone, no MPTP
Method: as §5, §2, §3
Catalepsy. The term implies the inability of an animal to correct an externally imposed posture. Catalepsy was measured by placing the animals on a flat horizontal surface with both the hind limbs on a square wooden block (3 cm high) and the latency in seconds was measured to move the hind limbs from the block to the ground. The animals were initially acclimatized on the wooden platform.

[7] = MPTP 30 mg/kg i.p. twice, 2 h after second injection, compared to saline treated mice
[8] = MPTP alone (30 mg/kg i.p. twice, 16 h apart)
[9] = irsogladine post-treatment in MPTP-treated mice
[10] = highest dose of irsogladine in MPTP-treated mice
[11] = irsogladine 25, 50, 100 mg/kg p.o. in MPTP-treated mice, 2 h after second MPTP injection
[12] = irsogladine 25 mg/kg p.o. + MPTP
[13] = irsogladine 25 mg/kg p.o., no MPTP
[14] = irsogladine 50 mg/kg p.o. + MPTP
[15] = irsogladine 50 mg/kg p.o., no MPTP
[16] = irsogladine 100 mg/kg p.o. + MPTP
[17] = irsogladine 100 mg/kg p.o., no MPTP

Compound: C[n+]1ccc(-c2ccccc2)cc1 [MPP^+, 1-methyl-4-phenylpyridinium ion]
increase in the production of 2,3-DHBA (OH production) [1]: 5 fold
increase in the production of 2,3-DHBA (OH production) ([1]; listed as MPP+): about 5 fold

Compound: CN1CC=C(c2ccccc2)CC1 [MPTP, 1-methyl-4-phenyl-1,2,3,6-tetrahydropyridine]
depletion of striatal DA (Balb/c mice [2]; MPTP 30 mg/kg i.p., 2 times 16 h apart, 5th day, compared to saline-injected mice): 55%
akinetic behavior induced by MPTP (Balb/c mice [3]; [7]): significant akinetic
level of 5-HIAA, in words (Balb/c mice [4]): not altered
level of serotonin (5-HT), in words (Balb/c mice [4]): not altered
5-HIAA (pmol/mg tissue; Mean ± SEM) (Balb/c mice [4]; [8]): 2.50 ± 0.24 pmol/mg tissue
5-HT (pmol/mg tissue; Mean ± SEM) (Balb/c mice [4]; [8]): 2.77 ± 0.31 pmol/mg tissue
swim score after MPTP (Balb/c mice [5]; MPTP 30 mg/kg i.p. twice, vs sham-treated animals, from the 2nd minute onwards): significant reduction
cataleptic behavior induced by MPTP (Balb/c mice [6]; [7]): cataleptic

akinesia, drug alone (Balb/c mice [3]; irsogladine alone, no MPTP): absent
Compound: Nc1nc(N)nc(-c2cc(Cl)ccc2Cl)n1 [Irsogladine, 2,4-diamino-6-(2,5-dichlorophenyl)-s-triazine]
protection of striatal DA (Balb/c mice [2]; irsogladine 25, 50 and 100 mg/kg p.o., b.i.d. for 2 days, post-treatment in MPTP-treated mice, 5th day): significant dose-dependant protection
alteration of striatal DA (Balb/c mice [2]; irsogladine alone in control animals): did not cause significant alteration
reversal of MPTP-induced reduction of striatal DOPAC (Balb/c mice [2]; [9]): dose-dependant reversal
reversal of MPTP-induced reduction of striatal HVA (Balb/c mice [2]; [9]): dose-dependant reversal
alteration of striatal DOPAC level (Balb/c mice [2]; irsogladine treatment alone): did not cause any significant alterations
alteration of striatal HVA level (Balb/c mice [2]; irsogladine treatment alone): did not cause any significant alterations
attenuation of MPTP-induced akinesia, highest dose (Balb/c mice [3]; [10]): complete
attenuation of MPTP-induced akinesia (Balb/c mice [3]; [11]): dose-dependently reduced; also recorded: dose-dependently attenuated
level of 5-HIAA, in words (Balb/c mice [4]): not altered
level of serotonin (5-HT), in words (Balb/c mice [4]): not altered
5-HIAA (pmol/mg tissue; Mean ± SEM) (Balb/c mice [4]; [12]): 2.11 ± 0.17 pmol/mg tissue
5-HT (pmol/mg tissue; Mean ± SEM) (Balb/c mice [4]; [12]): 2.64 ± 0.24 pmol/mg tissue
5-HIAA (pmol/mg tissue; Mean ± SEM) (Balb/c mice [4]; [13]): 2.32 ± 0.31 pmol/mg tissue
5-HT (pmol/mg tissue; Mean ± SEM) (Balb/c mice [4]; [13]): 2.52 ± 0.34 pmol/mg tissue
5-HIAA (pmol/mg tissue; Mean ± SEM) (Balb/c mice [4]; [14]): 2.88 ± 0.17 pmol/mg tissue
5-HT (pmol/mg tissue; Mean ± SEM) (Balb/c mice [4]; [14]): 2.97 ± 0.27 pmol/mg tissue
5-HIAA (pmol/mg tissue; Mean ± SEM) (Balb/c mice [4]; [15]): 2.99 ± 0.29 pmol/mg tissue
5-HT (pmol/mg tissue; Mean ± SEM) (Balb/c mice [4]; [15]): 2.96 ± 0.61 pmol/mg tissue
5-HIAA (pmol/mg tissue; Mean ± SEM) (Balb/c mice [4]; [16]): 2.01 ± 0.09 pmol/mg tissue
5-HT (pmol/mg tissue; Mean ± SEM) (Balb/c mice [4]; [16]): 2.68 ± 0.24 pmol/mg tissue
5-HIAA (pmol/mg tissue; Mean ± SEM) (Balb/c mice [4]; [17]): 2.32 ± 0.16 pmol/mg tissue
5-HT (pmol/mg tissue; Mean ± SEM) (Balb/c mice [4]; [17]): 2.52 ± 0.28 pmol/mg tissue
MPP+-induced 2,3-DHBA (OH adduct of salicylate) production in the mitochondria [1]: significantly attenuated
MPP+-induced 2,3-DHBA (OH adduct of salicylate) production in the mitochondria ([1]; listed as irsogladine): dose-dependently scavenged
improvement of swim score (Balb/c mice [5]; irsogladine post-treatment in MPTP-treated mice, dose-dependently): significantly improved
attenuation of MPTP-induced catalepsy, highest dose (Balb/c mice [6]; [10]): complete
attenuation of MPTP-induced catalepsy (Balb/c mice [6]; [11]): dose-dependently reduced; also recorded: dose-dependently attenuated
catalepsy (rigidity), drug alone (Balb/c mice [6]): does not cause catalepsy
catalepsy (rigidity), drug alone (Balb/c mice [6]; listed as irsladine): absent
